The test system of one assay is HT29 (colon). The experiment in a line: SRB anti-tumour (growth inhibition) assay, HT29. The following applies: Homo sapiens, HT-29, 48 h exposure, read-out: GI50 (concentration inhibiting 50% of cell growth). The class given is cell-based. The procedure: (§1) The compounds generated were tested against a series of cell lines from tumours. It quantitatively determined the cell growth and the viability, using a colorimetric assay type, using the reaction with sulforhodamine B (SRB), according to the technique described by Faircloth et al. (Journal of Tissue and Culture Methods 1988, 11, 201-205).
(§2) 96-well microtitre plates are inoculated with cells (5×10^3 cells per well) in aliquots of 195 μl of medium, incubating them during 18 h, in a medium without added compound, to allow the cells to adhere to the surface. Next, the compounds to be tested are added, in samples of 5 μl, at a range of concentrations of 10 to 10^−8 μg/ml, dissolved in DMSO/EtOH (0.2% in PS buffer). After 48 h exposure, the anti-tumour effect is measured using the Sulforhodamine B (SRB) technique: the cells are fixed adding 50 μl of cold […] (50%) (w/v) and it is incubated for 60 min. at 4° C. The plates are washed with deionized water and dried. 100 μl of SRB solution (0.4% w/v in 1% acetic acid) to each well and it is incubated during 10 min. at ambient temperature. The non-bound SRB is eliminated, washing with 1% acetic acid. The plates are air dried and the bound colorant is dissolved with Tris buffer. The optical densities are read in an automatic plate spectrophotometer reader at a wavelength of 490 nm.
(§3) For the compounds of formula (III), (IV), (V), (VI), (VII), (VIII), (IX) and the compounds of formula (XII), (XIII), (XIV), (XV), (XVI) and (XVIII).

Another assay has as its target T1, SYK (Homo sapiens, UniProt P43405).
T1 construct: purchased Carna Biosciences
The experiment in a line: LabChip (Caliper) kinase assay, SYK. As to conditions: read-out: remaining kinase activity (in %) / percentage of inhibition; for inhibition at 0.01 µM: compound at 10 nM; for inhibition at 0.1 µM: compound at 100 nM. The class given is biochemical. On the procedure: (§4) The analysis of kinase activity described here was performed using LabChip (Caliper Life Sciences), specifically the Caliper LC3000 and the EZ Reader II instruments.
(§5) The kinase assay used measures the conversion of a fluorescent peptide (substrate) to a phosphorylated product. The reaction mixture, in a microplate well, is introduced by a capillary in a chip where the non-phosphorylated substrate and the phosphorylated product are separated by […]. The intensity of the fluorescent signal over time is related to the reaction progress. The phosphorylated product migrates quicker than the non-phosphorylated substrate and the signals of the two forms of the peptide appear as differentiated peaks. The Caliper determines the peak height and calculates the ratio of product to the peak sum (P/(P+S)). This value is used to compare wells with compounds and wells with controls and thus determine the % of inhibition for the given product.
(§6) The followings kinases were used for the enzymatic inhibition studies, between brackets the value of the Michaelis-Menten constant, Km, of the ATP (Adenosine triphosphate) for each kinase, in μM: obtained from Carna Biosciences: MAPKAPK2 (4.6), AurA (3.6), AurB (5), PKCζ (3.8), RSK1 (23.3), PRAK (5), Erk1 (33.4), PKD2 (32.1), CK1d (16.3), CHK1 (33), ABL (61.7), FYN (36), LYNa (17), CHK2 (57.8), MET (79.5), LCK (28.5), SRC (38), GSK3β (7.3), Erk2 (62.1), PKACα (1.7), AKT2 (186.1), INSR (871.8), p38a (396.5), AKT1(48), MSK1 (21.2), PKCβ2 (84.8), ROCK2 (3.3), PIM2 (4.9), AMPK (38.6), KDR (164.8), IRAK4 (196.5), SGK1 (121.8), SYK (33.5); obtained from Invitrogen: CDK2 (57.6), BTK (123), HGK (80); obtained from Upstate: MST2 (36.6), PKGα (16), PAK2 (1.9), IGF1R (320), FGFR1 (171), MARK1 (33), CAMK2δ (22.4), c-TAK1 (66), DYRK1a (18.1), CaMK4 (3.9), FLT3 (350), c-Raf (6.2), P70S6K (95).
(§7) The compounds were dissolved in 100% DMSO and were diluted at 25 times the final concentration desired for the assay. In the case of the determination of Cl50, serial dilutions were made to reach eight concentrations and give rise to the inhibition curve. 1 μL of each concentration is transferred, in duplicate to a 384-well microplate. 12 μL of enzymatic buffer is added to each well containing purified kinase (several suppliers as indicated above), 100 mM HEPES, pH 7.5, 1 mM DTT (Calbiochem), 0.002% Brij-35 (Sigma) and also in presence of 10 mM MgCl2 as cofactor, except for INSR and IRAK4 wherein 10 mM MnCl2 is used instead of MgCl2. For the kinases CAMK26 and CAMK4, 1 mM CaCl2 and 6.7 μg/mL of calmodulin are also added. For KDR kinase, 0.05% of the CHAPSO detergent is added. For the c-Raf kinase, 10 mM MnCl2 is added. For PKCβ2 0.02 μg/mL of PS/PMA is added. For PKGα se 10 μM of cGMP (cyclic guanosine monophosphate) is added. The compound and the enzyme are left for 15 minutes preincubation and, then, the following are added to each well: 12 μL of peptide buffer/ATP containing 100 mM HEPES, pH 7.5, 1.5 μM peptide marker with fluorescein (specific for the corresponding kinase), ATP (at concentration KM), and 0.002% Brij-35 to start the reaction. Generally, the reactions are incubated for 1-1.5 h at ambient temperature to obtain an adequate conversion (15-40%) of the peptide to the phosphorylated product. The reactions were ended by the addition of 45 μL of buffer containing 0 mM EDTA. The microplates were read by the LabChip 3000 using a 12-channel LabChip. The P/(P+S) values were obtained as described above and the CI50 curves were generated using XIfit.
(§8) Table 9a has the 0150 data obtained in pairs of compound-kinase selected from the compounds of formula (VII), (VIII), (IX), (XVI), (XVII) and (XVIII) after taking inhibition measurements at 100 nM and 10 nM. Those couples that provide >70% of inhibition at 10 nM were consider for measuring its IC50. […]

The test system of the next assay is MDA-MB-231 (breast). The experiment in a line: SRB anti-tumour (growth inhibition) assay, MDA-MB-231. The class given is cell-based. The following applies: Homo sapiens, 48 h exposure, read-out: GI50 (concentration inhibiting 50% of cell growth). On the procedure: as §1, §2, §3
The next assay addresses T2, KDR (Homo sapiens, UniProt P35968).
T2 construct: purchased Carna Biosciences
The experiment in a line: LabChip (Caliper) kinase assay, KDR. The class given is biochemical. As to conditions: read-out: remaining kinase activity (in %) / percentage of inhibition; for inhibition at 0.01 µM: compound at 10 nM; for inhibition at 0.1 µM: compound at 100 nM. On the procedure:
as §4, §5, §6, §7, §8

The next assay concerns the target T3, FGFR1 (Homo sapiens, UniProt P11362).
T3 construct: purchased Upstate
The experiment in a line: LabChip (Caliper) kinase assay, FGFR1. The class given is biochemical. The following applies: read-out: remaining kinase activity (in %) / percentage of inhibition; for inhibition at 0.01 µM: compound at 10 nM; for inhibition at 0.1 µM: compound at 100 nM. On the procedure: as §4, §5, §6, §7, §8

For the next assay, the system named is A549 (lung). The experiment in a line: SRB anti-tumour (growth inhibition) assay, A549. In kind it is cell-based. As to conditions: Homo sapiens, 48 h exposure, read-out: GI50 (concentration inhibiting 50% of cell growth). On the procedure: as §1, §2, §3

The record followed here is US8598132B2, “Glycosylated indolocarbazoles, method for obtaining same and uses thereof” (Universidad de Oviedo, priority 2008, dated 2013).

T3 sequence (P11362 22-822, species assumed): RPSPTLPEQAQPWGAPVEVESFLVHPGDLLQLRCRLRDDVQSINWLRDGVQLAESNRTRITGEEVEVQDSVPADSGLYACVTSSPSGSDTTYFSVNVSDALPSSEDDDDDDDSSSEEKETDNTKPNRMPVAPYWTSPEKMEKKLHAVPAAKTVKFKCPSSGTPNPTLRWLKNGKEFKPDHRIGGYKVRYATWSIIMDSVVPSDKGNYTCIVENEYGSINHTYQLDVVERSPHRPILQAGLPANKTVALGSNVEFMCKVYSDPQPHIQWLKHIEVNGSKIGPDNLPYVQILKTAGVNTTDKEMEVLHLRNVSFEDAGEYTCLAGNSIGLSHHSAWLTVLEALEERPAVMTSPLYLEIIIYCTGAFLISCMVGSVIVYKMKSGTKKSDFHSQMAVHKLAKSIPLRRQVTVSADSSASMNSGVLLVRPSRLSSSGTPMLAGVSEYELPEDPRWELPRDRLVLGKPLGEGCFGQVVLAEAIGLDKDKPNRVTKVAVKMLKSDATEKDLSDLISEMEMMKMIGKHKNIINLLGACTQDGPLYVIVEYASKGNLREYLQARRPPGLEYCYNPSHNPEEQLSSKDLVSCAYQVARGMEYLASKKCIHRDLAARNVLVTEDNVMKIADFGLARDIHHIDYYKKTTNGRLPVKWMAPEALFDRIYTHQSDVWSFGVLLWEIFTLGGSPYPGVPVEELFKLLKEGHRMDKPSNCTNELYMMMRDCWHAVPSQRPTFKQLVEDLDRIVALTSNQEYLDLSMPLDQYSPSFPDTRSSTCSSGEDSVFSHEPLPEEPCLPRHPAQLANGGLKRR
T2 sequence (P35968 20-1356): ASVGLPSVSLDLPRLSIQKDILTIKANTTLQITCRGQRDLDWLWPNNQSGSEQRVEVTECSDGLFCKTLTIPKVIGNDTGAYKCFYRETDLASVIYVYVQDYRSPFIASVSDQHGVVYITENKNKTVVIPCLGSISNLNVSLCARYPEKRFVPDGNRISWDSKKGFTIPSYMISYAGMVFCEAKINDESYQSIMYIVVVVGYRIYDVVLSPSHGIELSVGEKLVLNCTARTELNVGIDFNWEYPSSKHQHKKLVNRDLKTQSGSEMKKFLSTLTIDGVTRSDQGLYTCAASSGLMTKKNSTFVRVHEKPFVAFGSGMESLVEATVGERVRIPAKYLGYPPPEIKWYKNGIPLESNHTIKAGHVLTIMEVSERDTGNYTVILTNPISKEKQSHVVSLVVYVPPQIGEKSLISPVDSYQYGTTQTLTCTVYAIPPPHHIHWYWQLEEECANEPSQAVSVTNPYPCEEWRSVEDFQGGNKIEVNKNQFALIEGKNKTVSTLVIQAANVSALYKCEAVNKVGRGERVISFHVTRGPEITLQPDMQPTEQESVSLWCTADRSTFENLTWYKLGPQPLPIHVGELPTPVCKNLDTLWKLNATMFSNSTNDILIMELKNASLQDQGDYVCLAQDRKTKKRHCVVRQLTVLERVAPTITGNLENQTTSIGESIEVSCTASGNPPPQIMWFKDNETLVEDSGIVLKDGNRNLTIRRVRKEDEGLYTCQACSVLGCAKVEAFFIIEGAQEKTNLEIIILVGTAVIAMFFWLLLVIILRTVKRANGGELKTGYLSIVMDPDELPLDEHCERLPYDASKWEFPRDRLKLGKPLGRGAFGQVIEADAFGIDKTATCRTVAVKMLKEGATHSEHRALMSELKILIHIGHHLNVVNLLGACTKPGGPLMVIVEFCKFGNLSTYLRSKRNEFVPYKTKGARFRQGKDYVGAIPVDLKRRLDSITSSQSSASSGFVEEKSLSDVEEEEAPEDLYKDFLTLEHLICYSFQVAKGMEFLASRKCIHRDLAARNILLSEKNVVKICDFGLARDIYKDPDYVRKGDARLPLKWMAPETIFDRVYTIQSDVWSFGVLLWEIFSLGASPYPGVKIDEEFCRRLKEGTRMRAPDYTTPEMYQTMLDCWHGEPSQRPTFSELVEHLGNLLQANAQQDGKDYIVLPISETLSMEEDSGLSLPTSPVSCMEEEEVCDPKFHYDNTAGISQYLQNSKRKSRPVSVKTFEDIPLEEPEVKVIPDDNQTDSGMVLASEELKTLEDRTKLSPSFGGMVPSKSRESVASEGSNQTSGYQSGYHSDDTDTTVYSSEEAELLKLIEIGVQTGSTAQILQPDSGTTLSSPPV

In the case of `C[C@@H]1O[C@@H](n2c3ccccc3c3c4c(c5c6ccccc6[nH]c5c32)C(=O)NC4=O)C[C@@H](O)[C@H]1O` [formula (V), N^13-1′-β-L-digitoxosylarcyriaflavin], the GI50 amounted to 6.39 µM in the assay with HT29 (colon), 4.19 µM with MDA-MB-231 (breast) and 4.41 µM with A549 (lung). Also, the values for the inhibition at 0.01 µM on SYK, at KDR and at FGFR1 were 13%, 28% and 7%, respectively. Besides, the figures for the inhibition at 0.1 µM on SYK, at KDR and on FGFR1 were 24%, 63% and 34%, respectively.
With `C[C@@H]1O[C@@H](n2c3ccccc3c3c4c(c5c6ccccc6[nH]c5c32)CNC4=O)C[C@H](O)[C@H]1O` [formula (XIII), N^13-1′-β-L-olivosyl-k252c], the GI50 in the assay with HT29 (colon) was found to be 1.52 µM; in the assay with MDA-MB-231 (breast), 1.43 µM; in the assay with A549 (lung), 1.56 µM. For the same compound, the results for the inhibition at 0.01 µM at SYK, on KDR and at FGFR1 were 12%, 7% and -1%, respectively. The inhibition at 0.1 µM was determined as 30% at SYK, 48% on KDR and 7% on FGFR1.
Consider `C[C@@H]1O[C@@H](n2c3ccccc3c3c4c(c5c6ccccc6[nH]c5c32)C(=O)NC4=O)[C@H](O)[C@H](O)[C@H]1O` [formula (III), N^13-1′-β-L-rhamnosylarcyriaflavin], for which the GI50 worked out at 2.42 µM in the assay on HT29 (colon), 4.4 µM with MDA-MB-231 (breast) and 4.18 µM in the assay with A549 (lung). The inhibition at 0.01 µM on SYK was 2%; at KDR, -7%; on FGFR1, 3%. Also, the inhibition at 0.1 µM at SYK was -8%; at KDR it was 21%; on FGFR1 it was 4%.
